# Assays:
# [1] = compound: C1CN(CCC1(C(=O)N[C@@H](CCO)C2=CC=C(C=C2)Cl)N)C3=NC=NC4=C3C=CN4 [Capivasertib]; conditions: max 3 µM
# How it was run: (§1)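 Viability was measured with CellTiter-Glo 2.0 luminescence after 72 hours of dosing at a final DMSO of typically 0.2%, and scaled between blank-well and DMSO-well means. Beforehand, cancer cell lines sat 24 hours at 37°C and 5% CO2 in 1536-well plates in 7.5 μl DMEM/F12 or RPMI with 10% FBS. A non-linear mixed effects model fitted two-parameter logistic curves to the dose responses. The single-agent IC50 comes from these fits.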
# [2] = compound: C=CCn1c(=O)c2cnc(Nc3ccc(N4CCN(C)CC4)cc3)nc2n1-c1cccc(C(C)(C)O)n1 [AZD1775]; conditions: max 3 µM
# How it was run: as §1
# [3] = compound: CC1(C)CCC(CN2CCN(c3ccc(C(=O)NS(=O)(=O)c4ccc(NCC5CCOCC5)c([N+](=O)[O-])c4)c(Oc4cnc5[nH]ccc5c4)c3)CC2)=C(c2ccc(Cl)cc2)C1 [Venetoclax]; conditions: max 1 µM
# How it was run: as §1
# [4] = compound: CC1=CN2[C@@H](C1)C=NC3=CC(=C(C=C3C2=O)OC)OCCCCCOC4=C(C=C5C(=C4)N=C[C@@H]6CC(=CN6C5=O)C)OC [SG3199]; conditions: max 0.001 µM
# How it was run: as §1
# [5] = compound: CCN(CCO)CCCOc1ccc2c(Nc3cc(CC(=O)Nc4cccc(F)c4)[nH]n3)ncnc2c1 [AZD2811]; conditions: max 1 µM
# How it was run: as §1
# [6] = compound: CCc1c2c(nc3ccc(O)cc13)-c1cc3c(c(=O)n1C2)COC(=O)[C@]3(O)CC [SN-38]; conditions: max 0.3 µM
# How it was run: as §1
# [7] = compound: CN(C)CCCOc1ccc(-c2ccc3ncc4c(c3c2)n(C2CCOCC2)c(=O)n4C)cn1 [AZD0156]; conditions: max 3 µM
# How it was run: as §1
# [8] = compound: CN(CC[C@H](CSC1=CC=CC=C1)NC2=C(C=C(C=C2)S(=O)(=O)NC(=O)C3=CC=C(C=C3)N4CCC(CC4)[C@H](C5=CC=CC=C5C6=CC=C(C=C6)Cl)O)S(=O)(=O)C(F)(F)F)CCO [AZD4320]; conditions: max 1 µM
# How it was run: as §1
# [9] = compound: COc1cccc(OCCCN)c1-c1cc(Nc2cnc(C#N)cn2)n[nH]1 [Prexasertib]; conditions: max 1 µM
# How it was run: as §1
# [10] = compound: COc1cccc2c1C(=O)c1c(O)c3c(c(O)c1C2=O)C[C@@](O)(C(=O)CO)C[C@@H]3O[C@H]1C[C@H](N)[C@H](O)[C@H](C)O1 [Doxorubicin]; conditions: max 1 µM
# How it was run: as §1
# [11] = compound: C[C@@H](Nc1cc(F)cc(F)c1)c1cc(C(=O)N(C)C)cc2c(=O)cc(N3CCOCC3)oc12 [AZD8186]
# How it was run: as §1
# [12] = compound: C[C@@H]1COCCN1C2=NC(=NC(=C2)C3(CC3)[S@](=N)(=O)C)C4=C5C=CNC5=NC=C4 [AZD6738]; conditions: max 10 µM
# How it was run: as §1
# [13] = compound: Cc1c2c(nn1C)CSCc1cc(n(C)n1)CSc1cc(c3ccccc3c1)OCCCc1c(C(=O)O)n(C)c3c-2c(Cl)ccc13 [AZD5991]; conditions: max 1 µM
# How it was run: as §1
# [14] = compound: Cc1cc2ncnn2cc1Nc1ncc2c(n1)n(C1CCOCC1)c(=O)n2C [AZD7648]; conditions: max 10 µM
# How it was run: as §1
# [15] = compound: Cn1cnc2c(F)c(Nc3ccc(Br)cc3Cl)c(C(=O)NOCCO)cc21 [Selumetinib]
# How it was run: as §1
# [16] = compound: O=C(c1cc(Cc2n[nH]c(=O)c3ccccc23)ccc1F)N1CCN(C(=O)C2CC2)CC1 [Olaparib]; conditions: max 10 µM
# How it was run: as §1
# [17] = compound: C1CC(C1)(C(=O)[O-])C(=O)[O-].N.N.[Pt+2] [Carboplatin]; conditions: max 10 µM
# How it was run: as §1
# [18] = compound: C1CN(CCC1(C(=O)N[C@@H](CCO)C2=CC=C(C=C2)Cl)N)C3=NC=NC4=C3C=CN4 [AZD5363]; conditions: max 10 µM
# How it was run: as §1
# [19] = compound: CC(=O)Nc1cccc(-n2c(=O)n(C3CC3)c(=O)c3c(Nc4ccc(I)cc4F)n(C)c(=O)c(C)c32)c1 [Trametinib]; conditions: max 1 µM
# How it was run: as §1
# [20] = compound: CC(=O)O[C@H]1C(=O)[C@@]2(C)[C@H]([C@H](OC(=O)c3ccccc3)[C@]3(O)C[C@H](OC(=O)[C@H](O)[C@@H](NC(=O)c4ccccc4)c4ccccc4)C(C)=C1C3(C)C)[C@]1(OC(C)=O)CO[C@@H]1C[C@@H]2O [Paclitaxel]; conditions: max 3 µM
# How it was run: as §1
# [21] = compound: CC(=O)c1c(C)c2cnc(Nc3ccc(N4CCNCC4)cn3)nc2n(C2CCCC2)c1=O [Palbociclib]; conditions: max 10 µM
# How it was run: as §1
# [22] = compound: CC(C)n1c(=O)n(C)c2cnc3cc(F)c(-c4ccc(OCCCN5CCCCC5)nc4)cc3c21 [AZD1390]; conditions: max 0.3 µM
# How it was run: as §1
# [23] = compound: CC1=C(C(=CC=C1)Cl)NC(=O)C2=CN=C(S2)NC3=CC(=NC(=N3)C)N4CCN(CC4)CCO [Dasatinib]; conditions: max 2 µM
# How it was run: as §1
# [24] = compound: COc1cc(Nc2ncc3c(n2)-c2ccc(Cl)cc2C(c2c(F)cccc2OC)=NC3)ccc1C(=O)O [Alisertib]; conditions: max 10 µM
# How it was run: as §1
# [25] = compound: COc1cc([C@@H]2c3cc4c(cc3[C@@H](O[C@@H]3O[C@@H]5CO[C@@H](C)O[C@H]5[C@H](O)[C@H]3O)[C@H]3COC(=O)[C@H]23)OCO4)cc(OC)c1O [Etoposide]; conditions: max 10 µM
# How it was run: as §1
# [26] = compound: COc1cc2ncnc(Nc3ccc(F)c(Cl)c3)c2cc1OCCCN1CCOCC1 [Gefitinib]; conditions: max 10 µM
# How it was run: as §1
# [27] = compound: COc1nnc2ccc(N3CCC(c4ccc(OCCN5CCN(C)C(=O)[C@H]5C)cc4)CC3)nn12 [AZD5153]; conditions: max 1 µM
# How it was run: as §1
# [28] = compound: CS(=O)(=O)CCNCc1ccc(-c2ccc3ncnc(Nc4ccc(OCc5cccc(F)c5)c(Cl)c4)c3c2)o1 [Lapatinib]; conditions: max 10 µM
# How it was run: as §1
# [29] = compound: C[C@@H](Oc1cc(-c2cnn(C3CCNCC3)c2)cnc1N)c1c(Cl)ccc(F)c1Cl [Crizotinib]; conditions: max 10 µM
# How it was run: as §1
# [30] = compound: C[C@@H](c1ccc2nccn2c1)n1nnc2ncc(-c3cnn(C)c3)nc21 [Savolitinib]; conditions: max 1 µM
# How it was run: as §1
# [31] = compound: Cc1nc(-c2cn3c(n2)-c2ccc(-c4cnn(C(C)(C)C(N)=O)c4)cc2OCC3)n(C(C)C)n1 [Taselisib]; conditions: max 10 µM
# How it was run: as §1
# [32] = compound: N#Cc1cnc(Nc2cc(NC[C@H]3CNCCO3)c(C(F)(F)F)cn2)cn1 [SRA737]; conditions: max 10 µM
# How it was run: as §1
# [33] = compound: NC1(c2ccc(-c3nc4ccn5c(=O)[nH]nc5c4cc3-c3ccccc3)cc2)CCC1 [MK-2206]; conditions: max 10 µM
# How it was run: as §1
# [34] = compound: Nc1ccn([C@@H]2O[C@H](CO)[C@@H](O)C2(F)F)c(=O)n1 [Gemcitabine]; conditions: max 0.3 µM
# How it was run: as §1
# [35] = compound: O=C(Nc1ccc2[nH]nc(-c3ccncc3)c2c1)[C@@H]1CCN(CC(=O)N2CCN(c3ccc(-c4ncccn4)cc3)CC2)C1; conditions: max 5 µM
# How it was run: as §1
# [36] = compound: O=c1[nH]cc(F)c(=O)[nH]1 [5-Fluorouracil]; conditions: max 20 µM
# How it was run: as §1
Cell Line,"IC50, cell viability 72 h [1]","IC50, cell viability 72 h [2]","IC50, cell viability 72 h [3]","IC50, cell viability 72 h [4]","IC50, cell viability 72 h [5]","IC50, cell viability 72 h [6]","IC50, cell viability 72 h [7]","IC50, cell viability 72 h [8]","IC50, cell viability 72 h [9]","IC50, cell viability 72 h [10]","IC50, cell viability 72 h ([11]; max 3 µM)","IC50, cell viability 72 h [12]","IC50, cell viability 72 h [13]","IC50, cell viability 72 h [14]","IC50, cell viability 72 h ([15]; max 3 µM)","IC50, cell viability 72 h [16]","IC50, cell viability 72 h [17]","IC50, cell viability 72 h [18]","IC50, cell viability 72 h [19]","IC50, cell viability 72 h [20]","IC50, cell viability 72 h [21]","IC50, cell viability 72 h [22]","IC50, cell viability 72 h [23]","IC50, cell viability 72 h [24]","IC50, cell viability 72 h [25]","IC50, cell viability 72 h [26]","IC50, cell viability 72 h [27]","IC50, cell viability 72 h [28]","IC50, cell viability 72 h ([11]; max 10 µM)","IC50, cell viability 72 h [29]","IC50, cell viability 72 h [30]","IC50, cell viability 72 h [31]","IC50, cell viability 72 h ([15]; max 10 µM)","IC50, cell viability 72 h [32]","IC50, cell viability 72 h [33]","IC50, cell viability 72 h [34]","IC50, cell viability 72 h [35]","IC50, cell viability 72 h [36]"
SIMA (Neuroblastoma),> 3000 nM,211 nM,> 1000 nM,> 1 nM,> 1000 nM,3.66 nM,> 3000 nM,299 nM,7.67 nM,706 nM,> 3000 nM,2350 nM,> 1000 nM,> 10000 nM,> 3000 nM,> 10000 nM,,,,,,,,,,,,,,,,,,,,,,
8305C (Thyroid Gland Carcinoma),,1940 nM,> 1000 nM,> 1 nM,> 1000 nM,> 300 nM,> 3000 nM,> 1000 nM,87.8 nM,> 1000 nM,,> 10000 nM,> 1000 nM,> 10000 nM,,> 10000 nM,> 10000 nM,> 10000 nM,902 nM,159 nM,> 10000 nM,> 300 nM,1150 nM,> 10000 nM,> 10000 nM,> 10000 nM,> 1000 nM,> 10000 nM,> 10000 nM,> 10000 nM,> 1000 nM,1280 nM,> 10000 nM,> 10000 nM,> 10000 nM,> 300 nM,> 5000 nM,> 20000 nM
Hs-633T (Other Solid Carcinomas),,472 nM,> 1000 nM,> 1 nM,> 1000 nM,38.2 nM,> 3000 nM,> 1000 nM,81.4 nM,380 nM,,3300 nM,> 1000 nM,> 10000 nM,,> 10000 nM,> 10000 nM,> 10000 nM,656 nM,30.4 nM,> 10000 nM,> 300 nM,334 nM,9060 nM,5070 nM,> 10000 nM,570 nM,> 10000 nM,> 10000 nM,7000 nM,> 1000 nM,7460 nM,> 10000 nM,> 10000 nM,> 10000 nM,14.5 nM,3360 nM,> 20000 nM
LoVo (Colorectal Carcinoma),,192 nM,> 1000 nM,> 1 nM,> 1000 nM,108 nM,> 3000 nM,> 1000 nM,24.4 nM,> 1000 nM,,1170 nM,> 1000 nM,> 10000 nM,,> 10000 nM,> 10000 nM,7270 nM,156 nM,70.3 nM,7650 nM,> 300 nM,> 2000 nM,> 10000 nM,> 10000 nM,> 10000 nM,> 1000 nM,> 10000 nM,952 nM,> 10000 nM,> 1000 nM,5550 nM,5810 nM,8630 nM,5230 nM,138 nM,1680 nM,> 20000 nM
NB14 (Neuroblastoma),,293 nM,726 nM,> 1 nM,24.9 nM,5.04 nM,> 3000 nM,126 nM,4.03 nM,174 nM,,1350 nM,566 nM,> 10000 nM,,> 10000 nM,> 10000 nM,> 10000 nM,570 nM,< 3 nM,2360 nM,> 300 nM,> 2000 nM,25.1 nM,849 nM,> 10000 nM,451 nM,> 10000 nM,> 10000 nM,1280 nM,> 1000 nM,> 10000 nM,> 10000 nM,677 nM,9150 nM,128 nM,> 5000 nM,> 20000 nM
HARA (Squamous Cell Lung Carcinoma),,207 nM,> 1000 nM,> 1 nM,> 1000 nM,44.5 nM,> 3000 nM,> 1000 nM,13.9 nM,577 nM,,1730 nM,> 1000 nM,> 10000 nM,,> 10000 nM,> 10000 nM,9160 nM,858 nM,3.63 nM,7420 nM,> 300 nM,> 2000 nM,3820 nM,9590 nM,> 10000 nM,223 nM,7690 nM,> 10000 nM,> 10000 nM,> 1000 nM,2150 nM,> 10000 nM,1000 nM,> 10000 nM,56 nM,3840 nM,18300 nM
